In PMC4599575 (Journal of thrombosis and haemostasis : JTH, 2015):

Legend:
Assay in all cases: surface plasmon resonance, protein immobilised on CM5 chip, […] Langmuir fit
Assay type in all cases: binding
[1] = biological target: GST-rVWF73-H (GST-VWF73-H) (Homo sapiens, UniProt P04275)
[2] = biological target: VWF (plasma-derived multimeric VWF) (Homo sapiens, UniProt P04275)
[3] = biological target: T1, rADAMTS13 (rA13) (Homo sapiens, UniProt Q76LX8)
T1 sequence (Q76LX8 75-1427): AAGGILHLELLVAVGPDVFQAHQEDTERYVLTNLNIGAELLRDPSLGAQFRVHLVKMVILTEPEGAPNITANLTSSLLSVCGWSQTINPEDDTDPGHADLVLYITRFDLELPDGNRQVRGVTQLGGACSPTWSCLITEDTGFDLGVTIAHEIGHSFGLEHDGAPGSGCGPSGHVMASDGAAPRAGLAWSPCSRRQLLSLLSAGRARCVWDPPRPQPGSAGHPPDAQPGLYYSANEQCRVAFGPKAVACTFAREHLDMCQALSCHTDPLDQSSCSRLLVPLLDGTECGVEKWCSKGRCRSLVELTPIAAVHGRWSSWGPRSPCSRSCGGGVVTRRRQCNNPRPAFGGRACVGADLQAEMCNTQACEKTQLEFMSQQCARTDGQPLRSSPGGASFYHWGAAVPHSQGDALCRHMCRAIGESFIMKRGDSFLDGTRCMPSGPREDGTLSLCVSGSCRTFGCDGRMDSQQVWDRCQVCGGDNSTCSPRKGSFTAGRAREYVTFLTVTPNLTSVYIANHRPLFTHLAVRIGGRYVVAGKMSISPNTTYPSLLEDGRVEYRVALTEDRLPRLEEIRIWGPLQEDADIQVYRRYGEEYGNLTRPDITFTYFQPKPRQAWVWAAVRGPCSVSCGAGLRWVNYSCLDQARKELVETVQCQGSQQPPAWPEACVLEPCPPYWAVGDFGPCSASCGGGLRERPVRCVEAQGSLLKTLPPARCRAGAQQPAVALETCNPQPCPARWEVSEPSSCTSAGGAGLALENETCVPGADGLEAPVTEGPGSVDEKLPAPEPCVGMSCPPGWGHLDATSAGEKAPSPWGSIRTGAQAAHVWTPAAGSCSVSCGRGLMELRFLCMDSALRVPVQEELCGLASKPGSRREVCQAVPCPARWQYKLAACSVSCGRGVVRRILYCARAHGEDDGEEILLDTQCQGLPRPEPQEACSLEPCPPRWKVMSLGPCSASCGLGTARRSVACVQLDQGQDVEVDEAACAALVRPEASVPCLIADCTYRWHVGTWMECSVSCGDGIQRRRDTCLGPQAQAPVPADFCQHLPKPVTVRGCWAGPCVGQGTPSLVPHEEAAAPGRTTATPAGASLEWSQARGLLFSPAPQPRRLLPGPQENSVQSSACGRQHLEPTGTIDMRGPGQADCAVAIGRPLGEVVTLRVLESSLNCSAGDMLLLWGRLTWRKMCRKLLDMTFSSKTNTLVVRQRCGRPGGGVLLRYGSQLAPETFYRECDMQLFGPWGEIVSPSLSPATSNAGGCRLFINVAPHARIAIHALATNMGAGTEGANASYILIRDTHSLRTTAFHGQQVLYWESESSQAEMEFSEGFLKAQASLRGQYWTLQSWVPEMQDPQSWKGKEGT

Sequence of GST-rVWF73-H (GST-VWF73-H) (P04275 1596-1668 limits assumed): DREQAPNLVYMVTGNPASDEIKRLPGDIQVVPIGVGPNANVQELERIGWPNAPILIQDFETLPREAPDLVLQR
Sequence of VWF (plasma-derived multimeric VWF) (P04275 764-2813): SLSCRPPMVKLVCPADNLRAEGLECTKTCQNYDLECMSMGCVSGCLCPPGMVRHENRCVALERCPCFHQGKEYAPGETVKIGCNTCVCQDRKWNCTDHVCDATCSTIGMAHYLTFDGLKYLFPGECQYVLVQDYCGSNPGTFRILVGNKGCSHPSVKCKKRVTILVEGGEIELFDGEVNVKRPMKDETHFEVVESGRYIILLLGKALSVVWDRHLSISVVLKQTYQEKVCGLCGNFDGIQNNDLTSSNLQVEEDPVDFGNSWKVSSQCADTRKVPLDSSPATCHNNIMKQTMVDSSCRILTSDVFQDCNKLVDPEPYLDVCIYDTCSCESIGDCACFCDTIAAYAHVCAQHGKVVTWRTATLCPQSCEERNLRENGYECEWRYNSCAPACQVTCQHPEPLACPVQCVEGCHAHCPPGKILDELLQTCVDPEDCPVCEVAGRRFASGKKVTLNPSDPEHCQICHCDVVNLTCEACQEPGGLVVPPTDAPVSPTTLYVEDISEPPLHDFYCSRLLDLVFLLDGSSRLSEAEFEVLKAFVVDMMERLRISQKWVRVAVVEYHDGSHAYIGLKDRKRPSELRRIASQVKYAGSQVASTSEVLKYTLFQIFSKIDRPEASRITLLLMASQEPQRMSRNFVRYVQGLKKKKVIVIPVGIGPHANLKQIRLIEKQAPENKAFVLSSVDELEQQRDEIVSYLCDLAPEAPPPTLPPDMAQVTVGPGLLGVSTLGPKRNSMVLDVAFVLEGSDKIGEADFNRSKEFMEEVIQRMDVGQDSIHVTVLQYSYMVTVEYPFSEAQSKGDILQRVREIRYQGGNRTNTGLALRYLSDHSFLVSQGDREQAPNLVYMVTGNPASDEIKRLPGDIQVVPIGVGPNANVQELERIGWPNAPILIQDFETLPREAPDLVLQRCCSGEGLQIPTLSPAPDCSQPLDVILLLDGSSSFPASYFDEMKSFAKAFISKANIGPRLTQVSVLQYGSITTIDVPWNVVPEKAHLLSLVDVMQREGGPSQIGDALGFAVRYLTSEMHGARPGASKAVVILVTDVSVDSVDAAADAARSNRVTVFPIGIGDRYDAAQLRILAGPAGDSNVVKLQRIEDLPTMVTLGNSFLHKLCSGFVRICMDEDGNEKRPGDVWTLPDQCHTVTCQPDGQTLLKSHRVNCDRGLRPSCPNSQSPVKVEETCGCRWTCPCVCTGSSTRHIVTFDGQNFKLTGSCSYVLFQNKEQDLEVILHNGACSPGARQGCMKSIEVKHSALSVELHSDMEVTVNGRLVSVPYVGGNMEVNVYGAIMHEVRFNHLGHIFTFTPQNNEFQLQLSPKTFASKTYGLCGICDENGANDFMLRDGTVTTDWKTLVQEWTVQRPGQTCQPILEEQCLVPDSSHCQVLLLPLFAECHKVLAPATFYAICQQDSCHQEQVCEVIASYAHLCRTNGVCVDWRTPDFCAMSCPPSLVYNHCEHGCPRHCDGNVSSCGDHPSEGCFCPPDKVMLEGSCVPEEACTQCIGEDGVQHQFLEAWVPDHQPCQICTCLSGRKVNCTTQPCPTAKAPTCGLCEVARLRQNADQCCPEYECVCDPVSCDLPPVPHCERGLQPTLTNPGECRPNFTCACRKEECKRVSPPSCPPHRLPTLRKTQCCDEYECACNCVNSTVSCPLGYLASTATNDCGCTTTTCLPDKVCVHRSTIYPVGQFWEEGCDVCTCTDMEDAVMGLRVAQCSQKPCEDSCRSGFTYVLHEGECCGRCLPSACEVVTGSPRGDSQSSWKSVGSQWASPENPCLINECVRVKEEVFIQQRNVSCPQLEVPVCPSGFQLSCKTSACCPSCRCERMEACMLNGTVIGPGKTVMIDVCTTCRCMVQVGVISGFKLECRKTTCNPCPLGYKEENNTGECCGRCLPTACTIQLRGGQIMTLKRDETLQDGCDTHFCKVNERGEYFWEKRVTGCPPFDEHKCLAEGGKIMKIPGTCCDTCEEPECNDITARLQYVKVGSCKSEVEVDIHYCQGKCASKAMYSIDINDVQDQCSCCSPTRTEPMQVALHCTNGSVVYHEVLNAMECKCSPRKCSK

## C=CC1=C(C)/C(=C/c2[nH]c(Cc3[nH]c(/C=C4\NC(=O)C(C)=C4C=C)c(C)c3CCC(=O)O)c(CCC(=O)O)c2C)NC1=O [unconjugated bilirubin]
[1]
  Kd: 57.5 ± 80.7 µM
[2]
  Kd: 29.6 ± 40.1 µM
[3]
  Kd: 17.5 ± 4 µM
